# Measured values taken from patent publication EP0304279B1, “Peptide determinant associated with immunity” (THE BOARD OF TRUSTEES OF THE LELAND STANFORD JUNIOR …, priority 1987, dated 1997).
# What was measured:
# [1] = test system: clone F1-28, a MBP-specific T-cell; test: Stimulation of MBP-specific T-cell clone by synthetic peptide (proliferation assay); type: cell-based; settings: T-cell clone F1-28 recognizing the autoantigen myelin basic protein
# Excerpt: The determinant of myelin basic protein (MBP) P5-17 (Zamvil, et al., Nature, supra) contains a pattern P-S-Q-R-H-G-S-K-Y-L-A-T-A. Using the algorithm for the subject motif for predicting T-cell clones the epitope of the clone F1-28, a MBP-specific T-cell was isolated (Zamvil, et al., J. Exp. Med. (1985) 162: 2107), which clone recognizes the autoantigen myelin basic protein. A peptide corresponding to amino acids P35-47 containing two patterns GILD and RFFS was synthesized and shown to be stimulatory.
# (§1) Proliferation Assay: Proliferative responses were determined as described previously (Zamvil et al., Nature (1985) 317:355). 1x10^4 T-cells were cultured with 5x10^5 X-irradiated (3,000 rad) PL/J splenic APC in 0.2 ml of culture media in 96 well flat-bottomed microtiter plates (Falcon, 3072). Peptides were added to culture giving the final concentrations indicated. At 48 hours incubation, each well was pulsed with 1 µCi ^3H-thymidine and harvested 16 hours later. The mean c.p.m. thymidine incorporation was calulated for triplicate cultures. Standard deviations from replicate cultures were within 10% mean value.
# [2] = test system: mouse T-cells; test: Proliferation assay (3H-thymidine incorporation) of MHC-restricted T-cells with PL/J splenic APC; type: cell-based
# Description: as §1
# [3] = test system: clone F1-28, a MBP-specific T-cell; settings: Zamvil et al., Nature (1986) 324:258; cited from earlier work
substance,measurement,setting,value
"G-I-L-D-S-I-G-R-F-F-S-G-D-R-G-A-P (GILDSIGRFFSGDRGAP) [P35-47, peptide of myelin basic protein containing two patterns GILD and RFFS]",T-cell stimulation,[1],stimulatory
same,T-cell stimulation,[2]; mouse T-cells restricted by MHC I-E(u)α E(u)β,stimulatory
L-D-S-I-G-R-F-F-S-G-D-R-G-A-P (LDSIGRFFSGDRGAP),stimulatory epitope defined with overlapping peptides,[3],stimulatory epitope
"P89-101: P89-101 of the human myelin basic protein comprising the motif HFFK (PHLIRLFSRDAPG; UniProt P02686 89-101, looked up, fragment)",T-cell stimulation,[2]; mouse T-cells restricted by I-A(s)α A(s)β,stimulatory
